Laboratory results: ChEMBL document CHEMBL6182947, “Discovery of Phloroglucinol Derivatives as a New Type of Nonnucleoside Inhibitors with Anti-herpes Simplex Virus Type 1 Activity” (J Med Chem, 2025)

Experiments:
[1] = Selectivity index, ratio of CC50 for Cytotoxicity against african green monkey Vero cells to IC50 for Antiviral activity against HSV1 infected in African green monkey Vero cells; format: toxicity, cell-based; details: read-out: Selectivity Index
Human alphaherpesvirus 1 [2] = experiment: Antiviral activity against HSV1 infected in African green monkey Vero cells assessed as reduction of virus-induced cytopathic effect measured after 48 hrs of incubation; format: functional, organism-based; details: Human alphaherpesvirus 1, Vero
[3] = Cytotoxicity against African green monkey Vero cells assessed as cell viability measured after 24 hrs incubation by MTT assay; format: toxicity, cell-based; details: chlorocebus sabaeus
Human alphaherpesvirus 1 [4] = experiment: Antiviral activity against ACV-resistant HSV1 Blue infected in African green monkey Vero cells assessed as reduction of virus-induced cytopathic effect measured after 48 hrs of incubation; format: functional, organism-based; details: Human alphaherpesvirus 1, Blue
Human alphaherpesvirus 1 [5] = experiment: Antiviral activity against ACV-resistant HSV1 153 infected in African green monkey Vero cells assessed as reduction of virus-induced cytopathic effect measured after 48 hrs of incubation; format: functional, organism-based; details: Human alphaherpesvirus 1, 153, Vero

CC(C)CC(=O)c1c(O)cc2c(c1O)C(CC(C)C)C1=C(CCCC1=O)O2 (stereo not given)
selectivity ratio [1]: 5.33
IC50 (Human alphaherpesvirus 1 [2]): 3000 nM
CC50 at 24 h [3]: 16000 nM

CC(C)CC(=O)c1c(O)cc(O)c2c1OC1=C(C(=O)C(C)(C)C(=O)C1(C)C)C2C(C)C (racemic)
selectivity ratio [1]: < 4
IC50 (Human alphaherpesvirus 1 [2]): 3750 nM
CC50 at 24 h [3]: 10000 nM

CCC(=O)c1c(O)cc2c(c1O)C(CC(C)C)C1=C(O2)C(C)(C)C(=O)C(C)(C)C1=O (stereo not given)
IC50 (Human alphaherpesvirus 1 [4]): 1400 nM
selectivity ratio [1]: 13.9
IC50 (Human alphaherpesvirus 1 [2]): 700 nM
IC50 (Human alphaherpesvirus 1 [5]): 1300 nM
CC50 at 24 h [3]: 7000 nM

CC1(C)C(=O)C2=C(Oc3cc(O)cc(O)c3C2c2ccccc2)C(C)(C)C1=O (stereo not given)
selectivity ratio [1]: 2.25
IC50 (Human alphaherpesvirus 1 [2]): 8000 nM
CC50 at 24 h [3]: 18000 nM

CC(C)CC1C2=C(Oc3cc(O)c(C(=O)CCc4ccccc4)c(O)c31)C(C)(C)C(=O)C(C)(C)C2=O (stereo not given)
IC50 (Human alphaherpesvirus 1 [4]): 200 nM
selectivity ratio [1]: 15.6
IC50 (Human alphaherpesvirus 1 [2]): 450 nM
IC50 (Human alphaherpesvirus 1 [5]): 400 nM
CC50 at 24 h [3]: 7000 nM

CC(C)CC(=O)c1c(O)c(Br)c2c(c1O)C(CC(C)C)C1=C(O2)C(C)(C)C(=O)C(C)(C)C1=O (stereo not given)
IC50 (Human alphaherpesvirus 1 [4]): 600 nM
selectivity ratio [1]: 11.7
IC50 (Human alphaherpesvirus 1 [2]): 600 nM
IC50 (Human alphaherpesvirus 1 [5]): 700 nM
CC50 at 24 h [3]: 7000 nM

CC(C)CC(=O)c1c(O)cc2c(c1O)C(Cc1ccccc1)C1=C(O2)C(C)(C)C(=O)C(C)(C)C1=O (stereo not given)
IC50 (Human alphaherpesvirus 1 [4]): 600 nM
selectivity ratio [1]: 21.7
IC50 (Human alphaherpesvirus 1 [2]): 600 nM
IC50 (Human alphaherpesvirus 1 [5]): 600 nM
CC50 at 24 h [3]: 13000 nM

CC(C)CC1C2=C(Oc3cc(O)cc(O)c31)C(C)(C)C(=O)C(C)(C)C2=O (stereo not given)
selectivity ratio [1]: 1.86
IC50 (Human alphaherpesvirus 1 [2]): 7000 nM
CC50 at 24 h [3]: 13000 nM

CC(C)C1C2=C(Oc3cc(O)cc(O)c31)C(C)(C)C(=O)C(C)(C)C2=O (stereo not given)
selectivity ratio [1]: 2.22
IC50 (Human alphaherpesvirus 1 [2]): 9000 nM
CC50 at 24 h [3]: 20000 nM

CC(C)CC(=O)c1c(OS(=O)(=O)C(F)(F)F)cc2c(c1O)C(CC(C)C)C1=C(O2)C(C)(C)C(=O)C(C)(C)C1=O (stereo not given)
IC50 (Human alphaherpesvirus 1 [4]): 1000 nM
selectivity ratio [1]: 16.7
IC50 (Human alphaherpesvirus 1 [2]): 1200 nM
IC50 (Human alphaherpesvirus 1 [5]): 600 nM
CC50 at 24 h [3]: 20000 nM

CCC1C2=C(Oc3cc(O)c(C(=O)CC(C)C)c(O)c31)C(C)(C)C(=O)C(C)(C)C2=O (stereo not given)
IC50 (Human alphaherpesvirus 1 [4]): 600 nM
selectivity ratio [1]: 7.5
IC50 (Human alphaherpesvirus 1 [2]): 800 nM
IC50 (Human alphaherpesvirus 1 [5]): 500 nM
CC50 at 24 h [3]: 6000 nM

CCCC(=O)c1c(O)cc2c(c1O)C(CC(C)C)C1=C(O2)C(C)(C)C(=O)C(C)(C)C1=O (stereo not given)
IC50 (Human alphaherpesvirus 1 [4]): 800 nM
IC50 (Human alphaherpesvirus 1 [2]): 500 nM
IC50 (Human alphaherpesvirus 1 [5]): 600 nM
CC50 at 24 h [3]: 10000 nM

CC(=O)c1c(O)cc2c(c1O)C(CC(C)C)C1=C(O2)C(C)(C)C(=O)C(C)(C)C1=O (stereo not given)
selectivity ratio [1]: 13.4
IC50 (Human alphaherpesvirus 1 [2]): 900 nM
CC50 at 24 h [3]: 12500 nM

CC(C)CC(=O)c1ccc2c(c1O)C(CC(C)C)C1=C(O2)C(C)(C)C(=O)C(C)(C)C1=O (stereo not given)
IC50 (Human alphaherpesvirus 1 [2]): 50000 nM
CC50 at 24 h [3]: > 100000 nM

CCCC1C2=C(Oc3cc(O)c(C(=O)CC(C)C)c(O)c31)C(C)(C)C(=O)C(C)(C)C2=O (stereo not given)
IC50 (Human alphaherpesvirus 1 [4]): 300 nM
selectivity ratio [1]: 18
IC50 (Human alphaherpesvirus 1 [2]): 500 nM
IC50 (Human alphaherpesvirus 1 [5]): 500 nM
CC50 at 24 h [3]: 9000 nM

CC(C)CC(=O)c1c(O)cc2c(c1O)C(C1CCC1)C1=C(O2)C(C)(C)C(=O)C(C)(C)C1=O (stereo not given)
IC50 (Human alphaherpesvirus 1 [4]): 500 nM
selectivity ratio [1]: 10
IC50 (Human alphaherpesvirus 1 [2]): 500 nM
IC50 (Human alphaherpesvirus 1 [5]): 400 nM
CC50 at 24 h [3]: 5000 nM

CC(C)CC1C2=C(Oc3cc(O)c(C(=O)CCCCCl)c(O)c31)C(C)(C)C(=O)C(C)(C)C2=O (stereo not given)
IC50 (Human alphaherpesvirus 1 [4]): 600 nM
selectivity ratio [1]: 16
IC50 (Human alphaherpesvirus 1 [2]): 450 nM
IC50 (Human alphaherpesvirus 1 [5]): 500 nM
CC50 at 24 h [3]: 8000 nM

CC(C)CC(=O)c1c(O)cc2c(c1O)C(C)C1=C(O2)C(C)(C)C(=O)C(C)(C)C1=O (racemic)
selectivity ratio [1]: < 18.8
IC50 (Human alphaherpesvirus 1 [2]): 800 nM
CC50 at 24 h [3]: 10000 nM

CC(C)CC(=O)c1c(O)cc2c(c1O)[C@H](CC(C)C)C1=C(O2)C(C)(C)[C@@H](O)C(C)(C)C1=O
selectivity ratio [1]: 3
IC50 (Human alphaherpesvirus 1 [2]): 2500 nM
CC50 at 24 h [3]: 7500 nM

CC(C)CC1C2=C(Oc3cc(O)c(C(=O)C4CCCCC4)c(O)c31)C(C)(C)C(=O)C(C)(C)C2=O (stereo not given)
IC50 (Human alphaherpesvirus 1 [4]): 250 nM
selectivity ratio [1]: 35
IC50 (Human alphaherpesvirus 1 [2]): 200 nM
IC50 (Human alphaherpesvirus 1 [5]): 300 nM
CC50 at 24 h [3]: 7000 nM

COc1c(C(=O)CC(C)C)c(O)cc2c1C(CC(C)C)C1=C(O2)C(C)(C)C(=O)C(C)(C)C1=O (stereo not given)
IC50 (Human alphaherpesvirus 1 [2]): 50000 nM
CC50 at 24 h [3]: > 100000 nM

CC(C)C(=O)c1c(O)cc2c(c1O)C(C(C)C)C1=C(O2)C(C)(C)C(=O)C(C)(C)C1=O (racemic)
selectivity ratio [1]: 26.8
IC50 (Human alphaherpesvirus 1 [2]): 780 nM
CC50 at 24 h [3]: 20900 nM

CC(C)CC(=O)c1c(O)cc(O)c2c1OC1=C(C(=O)C(C)(C)C(=O)C1(C)C)C2CC(C)C (racemic)
selectivity ratio [1]: 4.44
IC50 (Human alphaherpesvirus 1 [2]): 2250 nM
CC50 at 24 h [3]: 10000 nM

CC(C)CC(O)c1c(O)cc2c(c1O)C(CC(C)C)C1=C(O2)C(C)(C)C(=O)C(C)(C)C1=O (stereo not given)
IC50 (Human alphaherpesvirus 1 [2]): > 100000 nM
CC50 at 24 h [3]: > 100000 nM
